Measured values published in patent US10294202B2, “Pyrrolidinones as herbicides” (FMC Corporation, priority 2013, dated 2019).

Tests used:
sedge, umbrella = assay: Test B flooded paddy test; assay type: in vivo, Cyperus difformis; details: 500 g ai/ha, Flood; scale of 0 to 100 where 0 is no effect and 100 is complete control
Procedure, shortened: (§1)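 2-leaf plants; flood 3 cm over soil; compound into paddy water; depth held. Greenhouse 13–15 d. Visual rating vs controls, 0 (no effect) to 100 (complete control); dash = not tested.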

ducksalad = assay: Test B flooded paddy test; assay type: in vivo, Heteranthera limosa; details: 500 g ai/ha, Flood; scale of 0 to 100 where 0 is no effect and 100 is complete control
Procedure, shortened: as §1

barnyardgrass [1] = assay: Test B flooded paddy test; assay type: in vivo, Echinochloa crus-galli; details: 500 g ai/ha, Flood; scale of 0 to 100 where 0 is no effect and 100 is complete control
Procedure, shortened: as §1

ryegrass, Italian = assay: Test C pre-/postemergence herbicide test; assay type: in vivo, Lolium multiflorum
Procedure, shortened: (§2)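 Two application timings ran in parallel with identically formulated test chemicals (non-phytotoxic solvent, surfactant included): spray on seeded loam–sand soil, and spray on emerged plants 2 to 18 cm high. Evaluation at 13 to 15 days compared each species with controls, rated from 0 up to 100.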

wheat (winter wheat) = assay: Test C pre-/postemergence herbicide test; assay type: in vivo, Triticum aestivum
Procedure, shortened: as §2

galium = assay: Test C pre-/postemergence herbicide test; assay type: in vivo, Galium aparine
Procedure, shortened: as §2

corn = assay: Test C pre-/postemergence herbicide test; assay type: in vivo, Zea mays
Procedure, shortened: as §2

lambsquarters = assay: Test C pre-/postemergence herbicide test; assay type: in vivo, Chenopodium album
Procedure, shortened: as §2

morningglory = assay: Test C pre-/postemergence herbicide test; assay type: in vivo, Ipomoea coccinea
Procedure, shortened: as §2

pigweed = assay: Test C pre-/postemergence herbicide test; assay type: in vivo, Amaranthus retroflexus
Procedure, shortened: as §2

ragweed = assay: Test C pre-/postemergence herbicide test; assay type: in vivo, Ambrosia elatior
Procedure, shortened: as §2

soybean = assay: Test C pre-/postemergence herbicide test; assay type: in vivo, Glycine max
Procedure, shortened: as §2

barnyardgrass [2] = assay: Test C pre-/postemergence herbicide test; assay type: in vivo, Echinochloa crus-galli
Procedure, shortened: as §2

waterhemp = assay: Test C pre-/postemergence herbicide test; assay type: in vivo, Amaranthus rudis
Procedure, shortened: as §2

oat, wild = assay: Test C pre-/postemergence herbicide test; assay type: in vivo, Avena fatua; details: Postemergence
Procedure, shortened: as §2

[3] = Postemergence, 31 g ai/ha, scale 0 to 100 (0 no effect, 100 complete control)
[4] = Postemergence, 62 g ai/ha, scale 0 (no effect) to 100 (complete control)
[5] = Postemergence, 125 g ai/ha, scale 0 to 100 (0 no effect, 100 complete control)
[6] = Postemergence, 250 g ai/ha, scale 0 to 100 (0 no effect, 100 complete control)
[7] = Preemergence, 31 g ai/ha, scale 0 to 100, 0 is no effect and 100 is complete control
[8] = Preemergence, 62 g ai/ha, scale 0 to 100 (0 no effect, 100 complete control)
[9] = Preemergence, 125 g ai/ha, scale 0 to 100 (0 no effect, 100 complete control)

For `O=C1NCC(c2cccc(OC(F)F)c2)C1C(=O)Nc1ccccc1F` (centres unmarked) [Compound 223], the “Plant response rating, Sedge, Umbrella” value (sedge, umbrella) was 0, the “Plant response rating, Ducksalad” value (ducksalad) was 100 and the “Plant response rating, Barnyardgrass” value (barnyardgrass [1]) was 75. The “Plant response rating, Ryegrass, Italian” value (ryegrass, Italian; [3]) was 0, the “Plant response rating, Ryegrass, Italian” value (ryegrass, Italian; [4]) was 0 and the “Plant response rating, Ryegrass, Italian” value (ryegrass, Italian; [5]) was 0. The “Plant response rating, Ryegrass, Italian” value (ryegrass, Italian; [6]) was 0, the “Ryegrass, Italian plant response rating” value (ryegrass, Italian; [7]) was 0 and the “Ryegrass, Italian plant response rating” value (ryegrass, Italian; [8]) was 0. The “Plant response rating, Ryegrass, Italian” value (ryegrass, Italian; [9]) was 10, the “Plant response rating (scale of 0 to 100), Ryegrass, Italian” value (ryegrass, Italian; Preemergence, 250 g ai/ha) was 15 and the “Plant response rating, Wheat” value (wheat (winter wheat); [3]) was 0. For the same molecule, the “Plant response rating, Wheat” value (wheat (winter wheat); [4]) was 0, the “Plant response rating, Wheat” value (wheat (winter wheat); [5]) was 0 and the “Plant response rating, Wheat” value (wheat (winter wheat); [6]) was 0. For the same molecule, the “Wheat plant response rating” value (wheat (winter wheat); [7]) was 0, the “Wheat plant response rating” value (wheat (winter wheat); [8]) was 5 and the “Plant response rating, Wheat” value (wheat (winter wheat); [9]) was 10. For the same molecule, the “Plant response rating (scale of 0 to 100), Wheat” value (wheat (winter wheat); Preemergence, 250 g ai/ha) was 35, the “Plant response rating, Galium” value (galium; [3]) was 5 and the “Plant response rating, Galium” value (galium; [4]) was 5. The “Plant response rating, Galium” value (galium; [5]) was 45, the “Plant response rating, Galium” value (galium; [6]) was 70 and the “Galium plant response rating” value (galium; [7]) was 0. The “Galium plant response rating” value (galium; [8]) was 0, the “Plant response rating, Galium” value (galium; [9]) was 90 and the “Plant response rating (scale of 0 to 100), Galium” value (galium; Preemergence, 250 g ai/ha) was 90. For the same molecule, the “Plant response rating, Corn” value (corn; [3]) was 0, the “Plant response rating, Corn” value (corn; [4]) was 0 and the “Plant response rating, Corn” value (corn; [5]) was 0. The “Plant response rating, Corn” value (corn; [6]) was 5, the “Corn plant response rating” value (corn; [7]) was 0 and the “Corn plant response rating” value (corn; [8]) was 0. The “Plant response rating, Corn” value (corn; [9]) was 0, the “Plant response rating (scale of 0 to 100), Corn” value (corn; Preemergence, 250 g ai/ha) was 45 and the “Plant response rating, Lambsquarters” value (lambsquarters; [3]) was 0. For the same molecule, the “Plant response rating, Lambsquarters” value (lambsquarters; [4]) was 5, the “Plant response rating, Lambsquarters” value (lambsquarters; [5]) was 35 and the “Plant response rating, Lambsquarters” value (lambsquarters; [6]) was 60. For the same molecule, the “Lambsquarters plant response rating” value (lambsquarters; [7]) was 70, the “Lambsquarters plant response rating” value (lambsquarters; [8]) was 70 and the “Plant response rating, Lambsquarters” value (lambsquarters; [9]) was 85. The “Plant response rating (scale of 0 to 100), Lambsquarters” value (lambsquarters; Preemergence, 250 g ai/ha) was 90, the “Plant response rating, Morningglory” value (morningglory; [3]) was 0 and the “Plant response rating, Morningglory” value (morningglory; [4]) was 0. For the same molecule, the “Plant response rating, Morningglory” value (morningglory; [5]) was 0, the “Plant response rating, Morningglory” value (morningglory; [6]) was 35 and the “Morningglory plant response rating” value (morningglory; [7]) was 0. The “Morningglory plant response rating” value (morningglory; [8]) was 0, the “Plant response rating, Morningglory” value (morningglory; [9]) was 10 and the “Plant response rating (scale of 0 to 100), Morningglory” value (morningglory; Preemergence, 250 g ai/ha) was 20. For the same molecule, the “Plant response rating, Pigweed” value (pigweed; [3]) was 5, the “Plant response rating, Pigweed” value (pigweed; [4]) was 10 and the “Plant response rating, Pigweed” value (pigweed; [5]) was 10. The “Plant response rating, Pigweed” value (pigweed; [6]) was 60, the “Pigweed plant response rating” value (pigweed; [7]) was 20 and the “Pigweed plant response rating” value (pigweed; [8]) was 5. For the same molecule, the “Plant response rating, Pigweed” value (pigweed; [9]) was 20, the “Plant response rating (scale of 0 to 100), Pigweed” value (pigweed; Preemergence, 250 g ai/ha) was 30 and the “Plant response rating, Ragweed” value (ragweed; [3]) was 0. The “Plant response rating, Ragweed” value (ragweed; [4]) was 0, the “Plant response rating, Ragweed” value (ragweed; [5]) was 35 and the “Plant response rating, Ragweed” value (ragweed; [6]) was 35. The “Ragweed plant response rating” value (ragweed; [7]) was 0, the “Ragweed plant response rating” value (ragweed; [8]) was 0 and the “Plant response rating, Ragweed” value (ragweed; [9]) was 10. The “Plant response rating (scale of 0 to 100), Ragweed” value (ragweed; Preemergence, 250 g ai/ha) was 25, the “Plant response rating, Soybean” value (soybean; [3]) was 10 and the “Plant response rating, Soybean” value (soybean; [4]) was 0. The “Plant response rating, Soybean” value (soybean; [5]) was 0, the “Plant response rating, Soybean” value (soybean; [6]) was 30 and the “Soybean plant response rating” value (soybean; [7]) was 0. For the same molecule, the “Soybean plant response rating” value (soybean; [8]) was 5, the “Plant response rating, Soybean” value (soybean; [9]) was 5 and the “Plant response rating (scale of 0 to 100), Soybean” value (soybean; Preemergence, 250 g ai/ha) was 15. The “Plant response rating, Barnyardgrass” value (barnyardgrass [2]; [3]) was 0, the “Plant response rating, Barnyardgrass” value (barnyardgrass [2]; [4]) was 0 and the “Plant response rating, Barnyardgrass” value (barnyardgrass [2]; [5]) was 45. For the same molecule, the “Plant response rating, Barnyardgrass” value (barnyardgrass [2]; [6]) was 60, the “Barnyardgrass plant response rating” value (barnyardgrass [2]; [7]) was 65 and the “Plant response rating, Barnyardgrass” value (barnyardgrass [2]; Preemergence, 62 g ai/ha, scale 0 to 100) was 85. For the same molecule, the “Plant response rating, Barnyardgrass” value (barnyardgrass [2]; [9]) was 90, the “Plant response rating (scale of 0 to 100; 0 is no effect, 100 is complete control), Barnyardgrass” value (barnyardgrass [2]; Preemergence, 250 g ai/ha) was 95 and the “Plant response rating, Waterhemp” value (waterhemp; [3]) was 0. The “Plant response rating, Waterhemp” value (waterhemp; [4]) was 0, the “Plant response rating, Waterhemp” value (waterhemp; [5]) was 10 and the “Plant response rating, Waterhemp” value (waterhemp; [6]) was 10. The “Waterhemp plant response rating” value (waterhemp; [7]) was 90, the “Waterhemp plant response rating” value (waterhemp; [8]) was 0 and the “Plant response rating, Waterhemp” value (waterhemp; [9]) was 0. The “Plant response rating (scale of 0 to 100), Waterhemp” value (waterhemp; Preemergence, 250 g ai/ha) was 25, the “Plant response rating, Oat, Wild” value (oat, wild; 31 g ai/ha, scale 0 to 100 (0 no effect, 100 complete control)) was 0 and the “Plant response rating, Oat, Wild” value (oat, wild; 62 g ai/ha, scale 0 (no effect) to 100 (complete control)) was 0. The “Plant response rating, Oat, Wild” value (oat, wild; 125 g ai/ha, scale 0 to 100 (0 no effect, 100 complete control)) was 0 and the “Plant response rating, Oat, Wild” value (oat, wild; 250 g ai/ha, scale 0 to 100 (0 no effect, 100 complete control)) was 0.
